The source made the active and inactive calls. The rule behind the calls is not given here.
Key:
RAW264.7 [1] = assay: Cytotoxicity activity mouse RAW264.7 cells assessed as effect on cell viability at 25 uM incubated for 24 hrs by MTT assay; format: toxicity, cell-based; details: raw264.7, 24 h
Mus musculus [2] = assay: Antiinflammatory activity in LPS-induced acute lung injury BALB/c mouse model assessed as improvement in alveolar structure at 20 mg/kg, po administered for 3 days followed by LPS-induction for 1 hr and measured after 6 hrs by H and E staining based analysis; format: functional, organism-based; details: time 79.0 hrs
RAW264.7 [3] = assay: Antiinflammatory activity in mouse RAW264.7 cells assessed as inhibition of LPS-induced IL-6 release at 25 uM preincubated with compound for 1 hr followed by LPS-induction and measured after 24 hrs by ELISA analysis; format: functional, cell-based; details: time 25.0 hrs
Mus musculus [4] = assay: Antiinflammatory activity in LPS-induced acute lung injury BALB/c mouse model assessed as reduction in NO production in BALF at 20 mg/kg, po administered for 3 days followed by LPS-induction for 1 hr and measured after 6 hrs by Griess reagent based analysis; format: functional, organism-based; details: time 79.0 hrs
Mus musculus [5] = assay: Antiinflammatory activity in LPS-induced acute lung injury BALB/c mouse model assessed as reduction in NO production in BALF at 5 to 20 mg/kg, po administered for 3 days followed by LPS-induction for 1 hr and measured after 6 hrs by Griess reagent based analysis; format: functional, organism-based; details: dose 5-20 mg/kg, time 79.0 hrs
RAW264.7 [6] = assay: Inhibition of NF-kappaB signaling pathway in LPS-induced mouse RAW264.7 cells assessed as reduction in phosphorylated IkappaB to IkappaB relative expression at 6.25 to 25 uM pretreated with compound for 1 hr followed by LPS-induction and measured after 24 hrs by Western blot analysis; format: cell-based; details: dose 6.25-25 µM, time 25.0 hrs
RAW264.7 [7] = assay: Antiinflammatory activity in mouse RAW264.7 cells assessed as reduction in LPS-induced JNK phosphorylation at 6.25 to 25 uM preincubated with compound for 1 hr followed by LPS-induction and measured after 24 hrs by Western blot analysis; format: functional, cell-based; details: dose 6.25-25 µM, time 25.0 hrs
RAW264.7 [8] = assay: Antiinflammatory activity in mouse RAW264.7 cells assessed as reduction in LPS-induced IL-6 production preincubated with compound for 1 hr followed by LPS-induction and measured after 24 hrs by ELISA analysis relative to control; format: functional, cell-based
Mus musculus [9] = assay: Antiinflammatory activity in LPS-induced acute lung injury BALB/c mouse model assessed as downregulation of TNF-alpha level in BALF at 5 to 20 mg/kg, po administered for 3 days followed by LPS-induction for 1 hr and measured after 6 hrs by ELISA analysis; format: functional, organism-based; details: dose 5-20 mg/kg, time 79.0 hrs
RAW264.7 [10] = assay: Inhibition of IkappaB phosphorylation in mouse RAW264.7 cells at 6.25 to 25 uM pretreated with compound for 1 hr followed by LPS-induction and measured after 24 hrs by Western blot analysis; format: cell-based; details: dose 6.25-25 µM, time 25.0 hrs
[11] = molecular target: Transcription factor p65 (Mus musculus) (UniProt Q04207); assay: Inhibition of NF-kappaB signaling pathway in LPS-induced mouse RAW264.7 cells assessed as reduction in phosphorylated NF-kappaB to p65 relative expression at 6.25 to 25 uM pretreated with compound for 1 hr followed by LPS-induction and measured after 24 hrs by Western blot analysis; format: cell-based; details: dose 6.25-25 µM, time 25.0 hrs
Sequence of Transcription factor p65 (Mus musculus) (Q04207 whole entry): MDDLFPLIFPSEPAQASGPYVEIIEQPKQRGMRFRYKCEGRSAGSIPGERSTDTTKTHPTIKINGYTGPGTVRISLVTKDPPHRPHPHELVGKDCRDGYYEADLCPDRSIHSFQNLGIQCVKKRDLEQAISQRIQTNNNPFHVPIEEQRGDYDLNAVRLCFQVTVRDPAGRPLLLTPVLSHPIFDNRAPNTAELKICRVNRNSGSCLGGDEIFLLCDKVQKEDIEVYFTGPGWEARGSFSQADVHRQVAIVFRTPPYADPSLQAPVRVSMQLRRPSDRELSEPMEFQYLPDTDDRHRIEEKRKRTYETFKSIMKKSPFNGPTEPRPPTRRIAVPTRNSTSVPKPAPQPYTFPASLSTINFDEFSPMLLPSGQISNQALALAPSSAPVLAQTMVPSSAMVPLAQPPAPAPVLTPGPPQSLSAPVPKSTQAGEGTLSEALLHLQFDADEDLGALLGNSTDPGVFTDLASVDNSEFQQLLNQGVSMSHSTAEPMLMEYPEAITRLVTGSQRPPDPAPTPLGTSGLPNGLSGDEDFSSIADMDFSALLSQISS

Mus musculus [12] = assay: Antiinflammatory activity in LPS-induced po dosed acute lung injury BALB/c mouse model assessed as inhibition of iNOS expression administered for 3 days followed by LPS-induction for 1 hr and measured after 6 hrs by Western blot analysis; format: functional, organism-based; details: dose 5-20 mg/kg, time 79.0 hrs
RAW264.7 [13] = assay: Antiinflammatory activity in mouse RAW264.7 cells assessed as reduction in LPS-induced TNF-alpha production preincubated with compound for 1 hr followed by LPS-induction and measured after 24 hrs by ELISA analysis relative to control; format: functional, cell-based
RAW264.7 [14] = assay: Anti-inflammatory activity in mouse RAW264.7 cells assessed as inhibition of LPS-induced COX-2 […] expression preincubated with compound for 1 hr followed by LPS stimulation and measured after 24 hrs by Western blot analysis; format: functional, cell-based; details: dose 6.25-25 µM, time 25.0 hrs
RAW264.7 [15] = assay: Antiinflammatory activity in mouse RAW264.7 cells assessed as reduction in LPS-induced ERK phosphorylation at 6.25 to 25 uM preincubated with compound for 1 hr followed by LPS-induction and measured after 24 hrs by Western blot analysis; format: functional, cell-based; details: dose 6.25-25 µM, time 25.0 hrs
Mus musculus [16] = assay: Antiinflammatory activity in LPS-induced acute lung injury BALB/c mouse model assessed as downregulation of IL-6 level in BALF at 5 to 20 mg/kg, po administered for 3 days followed by LPS-induction for 1 hr and measured after 6 hrs by ELISA analysis; format: functional, organism-based; details: dose 5-20 mg/kg, time 79.0 hrs
Mus musculus [17] = assay: Antiinflammatory activity in LPS-induced acute lung injury BALB/c mouse model assessed as reduction in cell infiltration in lung at 20 mg/kg, po administered for 3 days followed by LPS-induction for 1 hr and measured after 6 hrs by H and E staining based analysis; format: functional, organism-based; details: time 79.0 hrs
Mus musculus [18] = assay: Antiinflammatory activity in LPS-induced acute lung injury BALB/c mouse model assessed as downregulation of TNF-alpha level in BALF at 20 mg/kg, po administered for 3 days followed by LPS-induction for 1 hr and measured after 6 hrs by ELISA analysis; format: functional, organism-based; details: time 79.0 hrs
RAW264.7 [19] = assay: Antiinflammatory activity in mouse RAW264.7 cells assessed as reduction in LPS-induced p38 phosphorylation at 6.25 to 25 uM preincubated with compound for 1 hr followed by LPS-induction and measured after 24 hrs by Western blot analysis; format: functional, cell-based; details: dose 6.25-25 µM, time 25.0 hrs
Mus musculus [20] = assay: Antiinflammatory activity in LPS-induced acute lung injury BALB/c mouse model assessed as downregulation of IL-6 level in BALF at 20 mg/kg, po administered for 3 days followed by LPS-induction for 1 hr and measured after 6 hrs by ELISA analysis; format: functional, organism-based; details: time 79.0 hrs
Mus musculus [21] = assay: Antiinflammatory activity in LPS-induced acute lung injury BALB/c mouse model assessed as reduction in W/D weight gain ratio in lung at 5 to 20 mg/kg, po administered for 3 days followed by LPS-induction for 1 hr and measured after 6 hrs; format: functional, organism-based; details: dose 5-20 mg/kg, time 79.0 hrs
RAW264.7 [22] = assay: Antiinflammatory activity in mouse RAW264.7 cells assessed as inhibition of LPS-induced IL-6 secretion by measuring fold change at 25 uM preincubated with compound for 1 hr followed by LPS-induction and measured after 24 hrs by ELISA analysis relative to Forsythin; format: functional; details: time 25 hrs
RAW264.7 [23] = assay: Anti-inflammatory activity in mouse RAW264.7 cells assessed as inhibition of LPS-induced iNOS […] expression at 25 uM preincubated with compound for 1 hr followed by LPS stimulation and measured after 24 hrs by Western blot analysis; format: functional, cell-based; details: time 25.0 hrs
[24] = molecular target: Transcription factor p65 (Mus musculus) (UniProt Q04207); assay: Inhibition of NF-kappaB p65 phosphorylation in mouse RAW264.7 cells at 6.25 to 25 uM pretreated with compound for 1 hr followed by LPS-induction and measured after 24 hrs by Western blot analysis; format: cell-based; details: dose 6.25-25 µM, time 25.0 hrs
RAW264.7 [25] = assay: Antiinflammatory activity in mouse RAW264.7 cells assessed as inhibition of LPS-induced IL-6 production at 25 uM preincubated with compound for 1 hr followed by LPS-induction and measured after 24 hrs by ELISA analysis relative to control; format: functional; details: time 25 hrs
Mus musculus [26] = assay: Antiinflammatory activity in LPS-induced po dosed acute lung injury BALB/c mouse model assessed as inhibition of COX-2 expression administered for 3 days followed by LPS-induction for 1 hr and measured after 6 hrs by Western blot analysis; format: functional, organism-based; details: dose 5-20 mg/kg, time 79.0 hrs
RAW264.7 [27] = assay: Anti-inflammatory activity in mouse RAW264.7 cells assessed as inhibition of LPS-induced iNOS […] expression preincubated with compound for 1 hr followed by LPS stimulation and measured after 24 hrs by Western blot analysis; format: functional, cell-based; details: dose 6.25-25 µM, time 25.0 hrs
RAW264.7 [28] = assay: Anti-inflammatory activity in mouse RAW264.7 cells assessed as inhibition of LPS-induced COX-2 […] expression at 25 uM preincubated with compound for 1 hr followed by LPS stimulation and measured after 24 hrs by Western blot analysis; format: functional, cell-based; details: time 25.0 hrs
RAW264.7 [29] = assay: Antiinflammatory activity in mouse RAW264.7 cells assessed as reduction in LPS-induced NO release preincubated with compound for 1 hr followed by LPS-induction and measured after 24 hrs by ELISA analysis relative to control; format: functional, cell-based
Mus musculus [30] = assay: Antiinflammatory activity in LPS-induced acute lung injury BALB/c mouse model assessed as reduction in lung edema at 20 mg/kg, po administered for 3 days followed by LPS-induction for 1 hr and measured after 6 hrs by H and E staining based analysis; format: functional, organism-based; details: time 79.0 hrs

Compound: COc1ccc(-n2cc(C(=O)OC[C@H]3O[C@H](Oc4ccc([C@H]5OC[C@H]6[C@@H]5CO[C@H]6c5ccc(OC)c(OC)c5)cc4OC)[C@H](O)[C@@H](O)[C@@H]3O)nn2)cc1
- Activity (RAW264.7 [1]): Non-Toxic

Compound: COc1ccc([C@@H]2OC[C@H]3[C@@H]2CO[C@@H]3c2ccc(O[C@H]3O[C@H](COC(=O)c4cn(-c5ccc(C)cc5)nn4)[C@@H](O)[C@H](O)[C@H]3O)c(OC)c2)cc1OC
- Activity (RAW264.7 [1]): Non-Toxic

Compound: COc1ccc([C@@H]2OC[C@H]3[C@@H]2CO[C@@H]3c2ccc(O[C@H]3O[C@H](COC(=O)c4cn(-c5ccc(Cl)cc5)nn4)[C@@H](O)[C@H](O)[C@H]3O)c(OC)c2)cc1OC
- Activity (RAW264.7 [1]): Non-Toxic

Compound: COc1ccc([C@@H]2OC[C@H]3[C@@H]2CO[C@@H]3c2ccc(O[C@H]3O[C@H](COC(=O)[C@H](CCSC)NC(=O)OC(C)(C)C)[C@@H](O)[C@H](O)[C@H]3O)c(OC)c2)cc1OC
- Activity (RAW264.7 [1]): Non-Toxic

Compound: COc1ccc([C@@H]2OC[C@H]3[C@@H]2CO[C@@H]3c2ccc(O[C@H]3O[C@H](COC(=O)[C@H](CC(C)C)NC(=O)OC(C)(C)C)[C@@H](O)[C@H](O)[C@H]3O)c(OC)c2)cc1OC
- Activity (RAW264.7 [1]): Non-Toxic

Compound: COc1ccc([C@@H]2OC[C@H]3[C@@H]2CO[C@@H]3c2ccc(O[C@H]3O[C@H](COC(=O)CNC(=O)OC(C)(C)C)[C@@H](O)[C@H](O)[C@H]3O)c(OC)c2)cc1OC
- Activity (RAW264.7 [1]): Non-Toxic

Compound: COc1ccc([C@H]2OC[C@@H]3[C@H]2CO[C@@H]3c2ccc(O[C@@H]3O[C@@H](COC(=O)c4cccc5ncccc45)[C@H](O)[C@@H](O)[C@@H]3O)c(OC)c2)cc1OC (stereo in doubt)
- Activity (RAW264.7 [1]): Non-Toxic

Compound: COc1ccc([C@@H]2OC[C@H]3[C@@H]2CO[C@@H]3c2ccc(O[C@H]3O[C@H](COC(=O)[C@H](Cc4ccccc4)NC(=O)OC(C)(C)C)[C@@H](O)[C@H](O)[C@H]3O)c(OC)c2)cc1OC
- Activity (Mus musculus [2]): Active
- Activity (RAW264.7 [3]): Active
- Activity (Mus musculus [4]): Active
- Activity (Mus musculus [5]): Active
- inhibition (RAW264.7 [6]): Active
- Activity (RAW264.7 [7]): Active
- IC50 (RAW264.7 [8]): 4.93 µM
- Activity (Mus musculus [9]): Active
- inhibition (RAW264.7 [10]): Active
- Activity (RAW264.7 [1]): Non-Toxic
- inhibition [11]: Active
- Activity (Mus musculus [12]): Dose-Dependent Effect
- IC50 (RAW264.7 [13]): > 25 µM
- Activity (RAW264.7 [14]): Dose-Dependent Effect
- Activity (RAW264.7 [15]): Active
- Activity (Mus musculus [16]): Active
- Activity (Mus musculus [17]): Active
- Activity (Mus musculus [18]): Active
- Activity (RAW264.7 [19]): inactive
- Activity (Mus musculus [20]): Active
- Activity (Mus musculus [21]): Active
- fold change (FC) (RAW264.7 [22]): 7.5
- Activity (RAW264.7 [23]): Active
- inhibition [24]: Active
- inhibition at 25 µM (RAW264.7 [25]): 91.8%
- Activity (Mus musculus [26]): Dose-Dependent Effect
- Activity (RAW264.7 [27]): Dose-Dependent Effect
- Activity (RAW264.7 [28]): Active
- IC50 (RAW264.7 [29]): 10.9 µM
- Activity (Mus musculus [30]): Active
